Measured values reported in article PMC10066365, “Nemacol is a small molecule inhibitor of C. elegans vesicular acetylcholine transporter with anthelmintic potential” (Nature Communications, 2023).
Where “and” joins values, the source holds several entries; their conditions need not be identical. Equal values may be shown once. Entries after “also recorded” stand apart in the source; their conditions may differ.

System: C. elegans
Experiment: C. elegans motor phenotype scoring on solid media (Punc/jerky-unc, coiled, paralyzed), wild-type young adults
Format: in vivo, Caenorhabditis elegans
Conditions: for any phene, mean % fraction of young adults exhibiting any phenotype (coiled, jerky-Unc or paralyzed) / atypical locomotion (number of animals) / coiled (number of animals) / no phene (number of animals) / paralyzed (number of animals): one hour; for any phene, mean % fraction of young adults exhibiting any phenotype (coiled, jerky-Unc or paralyzed): mean of three biological replicates; for atypical locomotion (number of animals) / coiled (number of animals) / no phene (number of animals) / paralyzed (number of animals): young adults, 20 animals per trial, single replicate counts; for C1 (number of animals scored) / C2 (number of animals scored) / Fraction Coiled, AVERAGES / Fraction Paralyzed, AVERAGES / Fraction Punc, AVERAGES / NP (number of animals scored) / P (number of animals scored) / Fraction Coiled / Fraction Paralyzed / Punc (number of animals scored) / Fraction Punc / Next Day: Animals alive (moving fine): adults; for Fraction Coiled / Fraction Paralyzed / Fraction Punc: single experiment

O=[N+]([O-])c1ccc(N2CCN(CC3CC4C=CC3C4)CC2)cc1 (stereo not drawn) [Nemacol-3]
any phene, mean % fraction of young adults exhibiting any phenotype (coiled, jerky-Unc or paralyzed) (3.75uM): 19.1667%
atypical locomotion (number of animals) (3.75uM): 0 and 13 and 10
coiled (number of animals) (3.75uM): 0
no phene (number of animals) (3.75uM): 20 and 7 and 10
paralyzed (number of animals) (3.75uM): 0
C1 (number of animals scored) (15 μM, 30 min): 0
C2 (number of animals scored) (15 μM, 30 min): 0
Fraction Coiled, AVERAGES (15 μM, 30 min): 0.0
Fraction Paralyzed, AVERAGES (15 μM, 30 min): 0.0
Fraction Punc, AVERAGES (15 μM, 30 min): 0.111
NP (number of animals scored) (15 μM, 30 min): 17 and 14
P (number of animals scored) (15 μM, 30 min): 0
Fraction Coiled (15 μM, 30 min): 0.0
Fraction Paralyzed (15 μM, 30 min): 0.0
C1 (number of animals scored) (15 μM, 60 min): 0
C2 (number of animals scored) (15 μM, 60 min): 0
Fraction Coiled, AVERAGES (15 μM, 60 min): 0.0
Fraction Paralyzed, AVERAGES (15 μM, 60 min): 0.0
Fraction Punc, AVERAGES (15 μM, 60 min): 0.4
P (number of animals scored) (15 μM, 60 min): 0
Fraction Coiled (15 μM, 60 min): 0.0
Fraction Paralyzed (15 μM, 60 min): 0.0
C1 (number of animals scored) (15 μM, 90 min): 0
C2 (number of animals scored) (15 μM, 90 min): 0
Fraction Coiled, AVERAGES (15 μM, 90 min): 0.0
Fraction Paralyzed, AVERAGES (15 μM, 90 min): 0.0
Fraction Punc, AVERAGES (15 μM, 90 min): 0.167
NP (number of animals scored) (15 μM, 90 min): 16 and 14 and 15
P (number of animals scored) (15 μM, 90 min): 0
Punc (number of animals scored) (15 μM, 90 min): 2 and 4 and 3
Fraction Coiled (15 μM, 90 min): 0.0
Fraction Paralyzed (15 μM, 90 min): 0.0
Fraction Punc (15 μM, 90 min): 0.111 and 0.222 and 0.167
C1 (number of animals scored) (15 μM, 120 min): 0
C2 (number of animals scored) (15 μM, 120 min): 0
Fraction Coiled, AVERAGES (15 μM, 120 min): 0.0
Fraction Paralyzed, AVERAGES (15 μM, 120 min): 0.0
Fraction Punc, AVERAGES (15 μM, 120 min): 0.0185
NP (number of animals scored) (15 μM, 120 min): 18 and 17
P (number of animals scored) (15 μM, 120 min): 0
Fraction Coiled (15 μM, 120 min): 0.0
Fraction Paralyzed (15 μM, 120 min): 0.0
C1 (number of animals scored) (15 μM, 240 min): 0
C2 (number of animals scored) (15 μM, 240 min): 0
Fraction Coiled, AVERAGES (15 μM, 240 min): 0.0
Fraction Paralyzed, AVERAGES (15 μM, 240 min): 0.0
Fraction Punc, AVERAGES (15 μM, 240 min): 0.0
NP (number of animals scored) (15 μM, 240 min): 18
P (number of animals scored) (15 μM, 240 min): 0
Punc (number of animals scored) (15 μM, 240 min): 0
Fraction Coiled (15 μM, 240 min): 0.0
Fraction Paralyzed (15 μM, 240 min): 0.0
Fraction Punc (15 μM, 240 min): 0.0
C1 (number of animals scored) (15 μM, 360 min): 0
C2 (number of animals scored) (15 μM, 360 min): 0
Fraction Coiled, AVERAGES (15 μM, 360 min): 0.0
Fraction Paralyzed, AVERAGES (15 μM, 360 min): 0.0
Fraction Punc, AVERAGES (15 μM, 360 min): 0.0
NP (number of animals scored) (15 μM, 360 min): 18
P (number of animals scored) (15 μM, 360 min): 0
Punc (number of animals scored) (15 μM, 360 min): 0
Fraction Coiled (15 μM, 360 min): 0.0
Fraction Paralyzed (15 μM, 360 min): 0.0
Fraction Punc (15 μM, 360 min): 0.0
Next Day: Animals alive (moving fine) (15 μM): alive, recovered; also recorded: alive recovered
any phene, mean % fraction of young adults exhibiting any phenotype (coiled, jerky-Unc or paralyzed) (15uM): 65.4545%
atypical locomotion (number of animals) (15uM): 12 and 14 and 4 and 3 and 7
coiled (number of animals) (15uM): 2 and 1 and 5
no phene (number of animals) (15uM): 6 and 5 and 15 and 16 and 0
paralyzed (number of animals) (15uM): 2 and 0 and 8 and 11
C1 (number of animals scored) (30 μM, 30 min): 0
C2 (number of animals scored) (30 μM, 30 min): 0
Fraction Coiled, AVERAGES (30 μM, 30 min): 0.0
Fraction Paralyzed, AVERAGES (30 μM, 30 min): 0.0
Fraction Punc, AVERAGES (30 μM, 30 min): 0.333
NP (number of animals scored) (30 μM, 30 min): 14 and 11
P (number of animals scored) (30 μM, 30 min): 0
Punc (number of animals scored) (30 μM, 30 min): 4 and 7
Fraction Coiled (30 μM, 30 min): 0.0
Fraction Paralyzed (30 μM, 30 min): 0.0
Fraction Punc (30 μM, 30 min): 0.222 and 0.4
C1 (number of animals scored) (30 μM, 60 min): 0
C2 (number of animals scored) (30 μM, 60 min): 0
Fraction Coiled, AVERAGES (30 μM, 60 min): 0.0
Fraction Paralyzed, AVERAGES (30 μM, 60 min): 0.0
Fraction Punc, AVERAGES (30 μM, 60 min): 0.6
P (number of animals scored) (30 μM, 60 min): 0
Punc (number of animals scored) (30 μM, 60 min): 8 and 15
Fraction Coiled (30 μM, 60 min): 0.0
Fraction Paralyzed (30 μM, 60 min): 0.0
Fraction Punc (30 μM, 60 min): 0.444 and 0.8
C1 (number of animals scored) (30 μM, 90 min): 0
C2 (number of animals scored) (30 μM, 90 min): 0
Fraction Coiled, AVERAGES (30 μM, 90 min): 0.0
Fraction Paralyzed, AVERAGES (30 μM, 90 min): 0.0
Fraction Punc, AVERAGES (30 μM, 90 min): 0.3
NP (number of animals scored) (30 μM, 90 min): 13 and 9 and 16
P (number of animals scored) (30 μM, 90 min): 0
Fraction Coiled (30 μM, 90 min): 0.0
Fraction Paralyzed (30 μM, 90 min): 0.0
C1 (number of animals scored) (30 μM, 120 min): 0
C2 (number of animals scored) (30 μM, 120 min): 0
Fraction Coiled, AVERAGES (30 μM, 120 min): 0.0
Fraction Paralyzed, AVERAGES (30 μM, 120 min): 0.0
Fraction Punc, AVERAGES (30 μM, 120 min): 0.0741
NP (number of animals scored) (30 μM, 120 min): 17 and 16
P (number of animals scored) (30 μM, 120 min): 0
Punc (number of animals scored) (30 μM, 120 min): 1 and 2
Fraction Coiled (30 μM, 120 min): 0.0
Fraction Paralyzed (30 μM, 120 min): 0.0
Fraction Punc (30 μM, 120 min): 0.0556 and 0.111
C1 (number of animals scored) (30 μM, 240 min): 0
C2 (number of animals scored) (30 μM, 240 min): 0
Fraction Coiled, AVERAGES (30 μM, 240 min): 0.0
Fraction Paralyzed, AVERAGES (30 μM, 240 min): 0.0
Fraction Punc, AVERAGES (30 μM, 240 min): 0.0
NP (number of animals scored) (30 μM, 240 min): 18
P (number of animals scored) (30 μM, 240 min): 0
Punc (number of animals scored) (30 μM, 240 min): 0
Fraction Coiled (30 μM, 240 min): 0.0
Fraction Paralyzed (30 μM, 240 min): 0.0
Fraction Punc (30 μM, 240 min): 0.0
C1 (number of animals scored) (30 μM, 360 min): 0
C2 (number of animals scored) (30 μM, 360 min): 0
Fraction Coiled, AVERAGES (30 μM, 360 min): 0.0
Fraction Paralyzed, AVERAGES (30 μM, 360 min): 0.0
Fraction Punc, AVERAGES (30 μM, 360 min): 0.0
NP (number of animals scored) (30 μM, 360 min): 18
P (number of animals scored) (30 μM, 360 min): 0
Punc (number of animals scored) (30 μM, 360 min): 0
Fraction Coiled (30 μM, 360 min): 0.0
Fraction Paralyzed (30 μM, 360 min): 0.0
Fraction Punc (30 μM, 360 min): 0.0
Next Day: Animals alive (moving fine) (30 μM): alive, recovered; also recorded: alive, recoveed
C1 (number of animals scored) (60 μM, 30 min): 0
C2 (number of animals scored) (60 μM, 30 min): 0
Fraction Coiled, AVERAGES (60 μM, 30 min): 0.0
Fraction Paralyzed, AVERAGES (60 μM, 30 min): 0.0
Fraction Punc, AVERAGES (60 μM, 30 min): 0.667
NP (number of animals scored) (60 μM, 30 min): 8 and 6 and 4
P (number of animals scored) (60 μM, 30 min): 0
Punc (number of animals scored) (60 μM, 30 min): 10 and 12 and 14
Fraction Coiled (60 μM, 30 min): 0.0
Fraction Paralyzed (60 μM, 30 min): 0.0
Fraction Punc (60 μM, 30 min): 0.556 and 0.667 and 0.8
C1 (number of animals scored) (60 μM, 60 min): 0
C2 (number of animals scored) (60 μM, 60 min): 0
Fraction Coiled, AVERAGES (60 μM, 60 min): 0.0
Fraction Paralyzed, AVERAGES (60 μM, 60 min): 0.0
Fraction Punc, AVERAGES (60 μM, 60 min): 0.741
NP (number of animals scored) (60 μM, 60 min): 5 and 3 and 6
P (number of animals scored) (60 μM, 60 min): 0
Punc (number of animals scored) (60 μM, 60 min): 13 and 15 and 12
Fraction Coiled (60 μM, 60 min): 0.0
Fraction Paralyzed (60 μM, 60 min): 0.0
Fraction Punc (60 μM, 60 min): 0.8 and 0.667
C1 (number of animals scored) (60 μM, 90 min): 0
C2 (number of animals scored) (60 μM, 90 min): 0
Fraction Coiled, AVERAGES (60 μM, 90 min): 0.0
Fraction Paralyzed, AVERAGES (60 μM, 90 min): 0.0
Fraction Punc, AVERAGES (60 μM, 90 min): 0.463
P (number of animals scored) (60 μM, 90 min): 0
Fraction Coiled (60 μM, 90 min): 0.0
Fraction Paralyzed (60 μM, 90 min): 0.0
C1 (number of animals scored) (60 μM, 120 min): 0
C2 (number of animals scored) (60 μM, 120 min): 0
Fraction Coiled, AVERAGES (60 μM, 120 min): 0.0
Fraction Paralyzed, AVERAGES (60 μM, 120 min): 0.0
Fraction Punc, AVERAGES (60 μM, 120 min): 0.259
NP (number of animals scored) (60 μM, 120 min): 10 and 15
P (number of animals scored) (60 μM, 120 min): 0
Fraction Coiled (60 μM, 120 min): 0.0
Fraction Paralyzed (60 μM, 120 min): 0.0
C1 (number of animals scored) (60 μM, 240 min): 0
C2 (number of animals scored) (60 μM, 240 min): 0
Fraction Coiled, AVERAGES (60 μM, 240 min): 0.0
Fraction Paralyzed, AVERAGES (60 μM, 240 min): 0.0
Fraction Punc, AVERAGES (60 μM, 240 min): 0.037
NP (number of animals scored) (60 μM, 240 min): 18 and 16
P (number of animals scored) (60 μM, 240 min): 0
Fraction Coiled (60 μM, 240 min): 0.0
Fraction Paralyzed (60 μM, 240 min): 0.0
Fraction Punc (60 μM, 240 min): 0.0
C1 (number of animals scored) (60 μM, 360 min): 0
C2 (number of animals scored) (60 μM, 360 min): 0
Fraction Coiled, AVERAGES (60 μM, 360 min): 0.0
Fraction Paralyzed, AVERAGES (60 μM, 360 min): 0.0
Fraction Punc, AVERAGES (60 μM, 360 min): 0.0
NP (number of animals scored) (60 μM, 360 min): 18
P (number of animals scored) (60 μM, 360 min): 0
Punc (number of animals scored) (60 μM, 360 min): 0
Fraction Coiled (60 μM, 360 min): 0.0
Fraction Paralyzed (60 μM, 360 min): 0.0
Fraction Punc (60 μM, 360 min): 0.0
Next Day: Animals alive (moving fine) (60 μM): alive, recovered; also recorded: alive recovered
any phene, mean % fraction of young adults exhibiting any phenotype (coiled, jerky-Unc or paralyzed) (60uM): 95.8333%
atypical locomotion (number of animals) (60uM): 5 and 8 and 9 and 7 and 0 and 4
coiled (number of animals) (60uM): 8 and 6 and 10
no phene (number of animals) (60uM): 0 and 2 and 3
paralyzed (number of animals) (60uM): 7 and 6 and 1 and 4 and 10 and 8
EC50 (Caenorhabditis elegans, 1 h, Fig. 1, dose-response at 60 min, wild-type young adults, +/- 95% CI, read-out: EC50): 24.5 ± 6.1 µM
